Reference: the supplement of paper PMC10307832

Legend:
Experiment in all cases: relative viability (nuclei count vs DMSO), 5 days (fraction); higher = more cells survive
[1] = system: COR-L23
Outline: (§1)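 Dosing by pin tool came one day after lung cancer cell lines were seeded in 1536-well plates, using either one drug or a fixed anchor-drug dose plus five library-drug doses (not always all listed) in √10 steps. After 5 days, nuclei were counted on 4× images. Relative viability is treated-well nuclei count divided by vehicle-well nuclei count, and values are medians of duplicate plates.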

[2] = system: ChaGo-K-1
Outline: as §1

[3] = system: PC-14
Outline: as §1

[4] = system: HOP-62
Outline: as §1

[5] = system: H3255
Outline: as §1

[6] = system: HARA
Outline: as §1

[7] = system: NCI-H1437
Outline: as §1

[8] = system: NCI-H441
Outline: as §1

[9] = system: NCI-H2085
Outline: as §1

[10] = system: NCI-H1666
Outline: as §1

[11] = system: NCI-H661
Outline: as §1

[12] = system: LXF-289
Outline: as §1

[13] = system: LCLC-97TM1
Outline: as §1

[14] = system: NCI-H1944
Outline: as §1

[15] = system: NCI-H2126
Outline: as §1

[16] = system: NCI-H2087
Outline: as §1

[17] = system: NCI-H3122
Outline: as §1

[18] = system: EPLC-272H
Outline: as §1

[19] = system: NCI-H1650
Outline: as §1

[20] = system: NCI-H1793
Outline: as §1

[21] = system: HCC-78
Outline: as §1

[22] = system: NCI-H1395
Outline: as §1

[23] = system: NCI-H596
Outline: as §1

For `CCNC(=O)c1noc(-c2cc(C(C)C)c(O)cc2O)c1-c1ccc(CN2CCOCC2)cc1` [Luminespib] + Nc1nc2[nH]cc(CCc3ccc(C(=O)N[C@@H](CCC(=O)O)C(=O)O)cc3)c2c(=O)[nH]1 [Pemetrexed] (partner 0.2 µM), the relative viability ([1]; first compound 0.002 µM) was 0.19, the relative viability ([1]; first compound 0.006325 µM) was 0.187 and the relative viability ([1]; first compound 0.02 µM) was 0.215. The relative viability ([1]; first compound 0.06325 µM) was 0.196, the relative viability ([1]; first compound 0.2 µM) was 0.101 and the relative viability ([2]; first compound 0.002 µM) was 0.27. It also gave a relative viability ([2]; first compound 0.006325 µM) of 0.253, a relative viability ([2]; first compound 0.02 µM) of 0.253 and a relative viability ([2]; first compound 0.06325 µM) of 0.248. The relative viability ([2]; first compound 0.2 µM) was 0.206, the relative viability ([3]; first compound 0.002 µM) was 0.148 and the relative viability ([3]; first compound 0.006325 µM) was 0.175. It also gave a relative viability ([3]; first compound 0.02 µM) of 0.132, a relative viability ([3]; first compound 0.06325 µM) of 0.0853 and a relative viability ([3]; first compound 0.2 µM) of 0.0503. The relative viability ([4]; first compound 0.002 µM) was 0.314, the relative viability ([4]; first compound 0.006325 µM) was 0.4 and the relative viability ([4]; first compound 0.02 µM) was 0.34. For the same compound, the relative viability ([4]; first compound 0.06325 µM) was 0.156, the relative viability ([4]; first compound 0.2 µM) was 0.125 and the relative viability ([5]; first compound 0.002 µM) was 0.579. For the same compound, the relative viability ([5]; first compound 0.006325 µM) was 0.497, the relative viability ([5]; first compound 0.02 µM) was 0.529 and the relative viability ([5]; first compound 0.06325 µM) was 0.536. It also gave a relative viability ([5]; first compound 0.2 µM) of 0.335, a relative viability ([6]; first compound 0.002 µM) of 0.253 and a relative viability ([6]; first compound 0.006325 µM) of 0.24. The relative viability ([6]; first compound 0.02 µM) was 0.273, the relative viability ([6]; first compound 0.06325 µM) was 0.172 and the relative viability ([6]; first compound 0.2 µM) was 0.135. For the same compound, the relative viability ([7]; first compound 0.002 µM) was 0.305, the relative viability ([7]; first compound 0.006325 µM) was 0.305 and the relative viability ([7]; first compound 0.02 µM) was 0.347. The relative viability ([7]; first compound 0.06325 µM) was 0.266, the relative viability ([7]; first compound 0.2 µM) was 0.156 and the relative viability ([8]; first compound 0.002 µM) was 0.263. The relative viability ([8]; first compound 0.006325 µM) was 0.309, the relative viability ([8]; first compound 0.02 µM) was 0.248 and the relative viability ([8]; first compound 0.06325 µM) was 0.153. It also gave a relative viability ([8]; first compound 0.2 µM) of 0.116, a relative viability ([9]; first compound 0.002 µM) of 0.908 and a relative viability ([9]; first compound 0.006325 µM) of 0.893. It also gave a relative viability ([9]; first compound 0.02 µM) of 0.698, a relative viability ([9]; first compound 0.06325 µM) of 0.309 and a relative viability ([9]; first compound 0.2 µM) of 0.261. For the same compound, the relative viability ([10]; first compound 0.002 µM) was 0.876, the relative viability ([10]; first compound 0.006325 µM) was 0.799 and the relative viability ([10]; first compound 0.02 µM) was 0.908. It also gave a relative viability ([10]; first compound 0.06325 µM) of 0.833, a relative viability ([10]; first compound 0.2 µM) of 0.911 and a relative viability ([11]; first compound 0.002 µM) of 0.921. For the same compound, the relative viability ([11]; first compound 0.006325 µM) was 0.863, the relative viability ([11]; first compound 0.02 µM) was 0.966 and the relative viability ([11]; first compound 0.06325 µM) was 0.651. It also gave a relative viability ([11]; first compound 0.2 µM) of 0.318, a relative viability ([12]; first compound 0.002 µM) of 0.91 and a relative viability ([12]; first compound 0.006325 µM) of 0.915. The relative viability ([12]; first compound 0.02 µM) was 1.09, the relative viability ([12]; first compound 0.06325 µM) was 0.333 and the relative viability ([12]; first compound 0.2 µM) was 0.136. The relative viability ([13]; first compound 0.002 µM) was 0.189, the relative viability ([13]; first compound 0.006325 µM) was 0.164 and the relative viability ([13]; first compound 0.06325 µM) was 0.0959. For the same compound, the relative viability ([13]; first compound 0.2 µM) was 0.0922, the relative viability ([14]; first compound 0.002 µM) was 0.636 and the relative viability ([14]; first compound 0.006325 µM) was 0.602. For the same compound, the relative viability ([14]; first compound 0.02 µM) was 0.477, the relative viability ([14]; first compound 0.06325 µM) was 0.258 and the relative viability ([14]; first compound 0.2 µM) was 0.149. The relative viability ([15]; first compound 0.002 µM) was 0.705, the relative viability ([15]; first compound 0.006325 µM) was 0.626 and the relative viability ([15]; first compound 0.06325 µM) was 0.479. For the same compound, the relative viability ([15]; first compound 0.2 µM) was 0.181, the relative viability ([16]; first compound 0.002 µM) was 0.708 and the relative viability ([16]; first compound 0.006325 µM) was 0.627. It also gave a relative viability ([16]; first compound 0.02 µM) of 0.639, a relative viability ([16]; first compound 0.06325 µM) of 0.152 and a relative viability ([16]; first compound 0.2 µM) of 0.133. The relative viability ([17]; first compound 0.002 µM) was 0.203, the relative viability ([17]; first compound 0.006325 µM) was 0.182 and the relative viability ([17]; first compound 0.02 µM) was 0.184. It also gave a relative viability ([17]; first compound 0.06325 µM) of 0.135, a relative viability ([17]; first compound 0.2 µM) of 0.111 and a relative viability ([18]; first compound 0.002 µM) of 0.41. The relative viability ([18]; first compound 0.006325 µM) was 0.266, the relative viability ([18]; first compound 0.02 µM) was 0.335 and the relative viability ([18]; first compound 0.06325 µM) was 0.133. It also gave a relative viability ([18]; first compound 0.2 µM) of 0.113, a relative viability ([19]; first compound 0.002 µM) of 0.404 and a relative viability ([19]; first compound 0.006325 µM) of 0.368. It also gave a relative viability ([19]; first compound 0.02 µM) of 0.426, a relative viability ([19]; first compound 0.06325 µM) of 0.152 and a relative viability ([19]; first compound 0.2 µM) of 0.137. For the same compound, the relative viability ([20]; first compound 0.002 µM) was 0.859, the relative viability ([20]; first compound 0.006325 µM) was 0.741 and the relative viability ([20]; first compound 0.02 µM) was 0.294. It also gave a relative viability ([20]; first compound 0.06325 µM) of 0.122, a relative viability ([20]; first compound 0.2 µM) of 0.119 and a relative viability ([21]; first compound 0.002 µM) of 0.885. For the same compound, the relative viability ([21]; first compound 0.006325 µM) was 0.864, the relative viability ([21]; first compound 0.02 µM) was 0.97 and the relative viability ([21]; first compound 0.06325 µM) was 0.87. For the same compound, the relative viability ([21]; first compound 0.2 µM) was 0.858, the relative viability ([22]; first compound 0.002 µM) was 0.875 and the relative viability ([22]; first compound 0.006325 µM) was 0.812. For the same compound, the relative viability ([22]; first compound 0.02 µM) was 0.699, the relative viability ([22]; first compound 0.06325 µM) was 0.299 and the relative viability ([22]; first compound 0.2 µM) was 0.353. The relative viability ([23]; first compound 0.002 µM) was 0.526, the relative viability ([23]; first compound 0.006325 µM) was 0.493 and the relative viability ([23]; first compound 0.02 µM) was 0.548. For the same compound, the relative viability ([23]; first compound 0.06325 µM) was 0.518 and the relative viability ([23]; first compound 0.2 µM) was 0.528.
